Assay results taken from ChEMBL document CHEMBL4219147, “Design, synthesis, and structure-activity relationships of novel 4,7,12,12a-tetrahydro-5H-thieno[3',2':3,4]pyrido[1,2-b]isoquinoline and 5,8,12,12a-tetrahydro-6H-thieno[2',3':4,5]pyrido[2,1-a]isoquinoline derivatives as cellular activators of adenosine 5'-monophosphate-activated protein kinase …” (Bioorg Med Chem, 2018).
Calls of active or inactive are those of the source. The rule behind the calls is not given here.

What was measured:
L6 [1] = assay: Activation of AMPK in differentiated Sprague-Dawley rat L6 myotube cells assessed as glucose consumption at 5 uM after 12 hrs by colorimetric assay (reference value: 100 +/- 1.8%); assay type: cell-based
L6 [2] = assay: Activation of AMPK in differentiated Sprague-Dawley rat L6 myotube cells assessed as glucose consumption at 10 uM after 12 hrs by colorimetric assay (reference value: 100 +/- 1.8%); assay type: cell-based
L6 [3] = assay: Activation of AMPK in differentiated Sprague-Dawley rat L6 myotube cells assessed as glucose consumption at 20 uM after 12 hrs by colorimetric assay (reference value: 100 +/- 1.8%); assay type: cell-based
L6 [4] = assay: Activation of AMPK in differentiated Sprague-Dawley rat L6 myotube cells assessed as increase in glucose consumption at 5 to 20 uM after 12 hrs by colorimetric assay relative to control; assay type: cell-based
[5] = Cytotoxicity against Sprague-Dawley rat L6 cells assessed as cell viability at 5 uM after 12 hrs by SRB assay (reference value: 100 +/- 1.8%); assay type: cell-based; settings: read-out: Activity
[6] = Cytotoxicity against Sprague-Dawley rat L6 cells assessed as cell viability at 10 uM after 12 hrs by SRB assay (reference value: 100 +/- 1.8%); assay type: cell-based; settings: read-out: Activity
[7] = Cytotoxicity against Sprague-Dawley rat L6 cells assessed as cell viability at 20 uM after 12 hrs by SRB assay (reference value: 100 +/- 1.8%); assay type: cell-based; settings: read-out: Activity
Rattus norvegicus [8] = species on record: Rattus norvegicus; assay: Activation of AMPK in Sprague-Dawley rat primary hepatocytes assessed as inhibition of gluconeogenesis by measuring glucose production at 5 uM after 6 hrs by colorimetric assay (reference value: 100 +/- 3.5%); design: scale not given: the % may be the effect or the level left
Rattus norvegicus [9] = species on record: Rattus norvegicus; assay: Activation of AMPK in Sprague-Dawley rat primary hepatocytes assessed as inhibition of gluconeogenesis by measuring glucose production at 10 uM after 6 hrs by colorimetric assay (reference value: 100 +/- 3.5%); design: scale not given: the % may be the effect or the level left
Rattus norvegicus [10] = species on record: Rattus norvegicus; assay: Activation of AMPK in Sprague-Dawley rat primary hepatocytes assessed as inhibition of gluconeogenesis by measuring glucose production at 20 uM after 6 hrs by colorimetric assay (reference value: 100 +/- 3.5%); design: scale not given: the % may be the effect or the level left
Rattus norvegicus [11] = species on record: Rattus norvegicus; assay: Activation of AMPK in Sprague-Dawley rat primary hepatocytes assessed as inhibition of gluconeogenesis by measuring glucose production after 6 hrs by colorimetric assay
L6 [12] = assay: Upregulation of AMPKalpha phosphorylation at Thr172 residues in Sprague-Dawley rat L6 myotube cells at 5 to 20 uM after 1 hr by Western blot analysis; assay type: cell-based
L6 [13] = assay: Activation of AMPK in Sprague-Dawley rat L6 myotube cells assessed as increase in acetyl-CoA carboxylase phosphorylation at Ser79 residues at 5 to 20 uM after 1 hr by Western blot analysis; assay type: cell-based
L6 [14] = assay: Inhibition of mitochondrial respiratory complex 1 in differentiated Sprague-Dawley rat L6 myotube cells assessed as mitochondrial membrane potential at 5 uM after 40 to 60 mins by JC-1 staining based fluorescence assay (reference value: 100 +/- 1.6%); assay type: cell-based; design: scale not given: the % may be the effect or the level left
L6 [15] = assay: Inhibition of mitochondrial respiratory complex 1 in differentiated Sprague-Dawley rat L6 myotube cells assessed as mitochondrial membrane potential at 10 uM after 40 to 60 mins by JC-1 staining based fluorescence assay (reference value: 100 +/- 1.6%); assay type: cell-based; design: scale not given: the % may be the effect or the level left
L6 [16] = assay: Inhibition of mitochondrial respiratory complex 1 in differentiated Sprague-Dawley rat L6 myotube cells assessed as mitochondrial membrane potential at 20 uM after 40 to 60 mins by JC-1 staining based fluorescence assay (reference value: 100 +/- 1.6%); assay type: cell-based; design: scale not given: the % may be the effect or the level left
L6 [17] = assay: Activation of AMPK in differentiated Sprague-Dawley rat L6 myotube cells assessed as increase in glucose consumption at 5 to 20 uM after 12 hrs by colorimetric assay relative to berberine; assay type: cell-based

SMILES	Activity (L6 [1]) [%]	Activity (L6 [2]) [%]	Activity (L6 [3]) [%]	fold change (FC) (L6 [4])	viability at 12 h, 5 µM [5] [%]	viability at 12 h, 10 µM [6] [%]	viability at 12 h, 20 µM [7] [%]	Activity (Rattus norvegicus [8]) [%]	Activity (Rattus norvegicus [9]) [%]	Activity (Rattus norvegicus [10]) [%]	inhibition (Rattus norvegicus [11])	Activity (L6 [12])	Activity (L6 [13])	Activity (L6 [14]) [%]	Activity (L6 [15]) [%]	Activity (L6 [16]) [%]	fold change (FC) (L6 [17])
COc1ccc(OC)c2c1CC1c3cc(Cc4ccc(N5CCCCC5)cc4)sc3CCN1C2 (stereo unspecified)	214	252	270	2.5	103	101	102	51.6	46.7	43	Dose-dependent effect	Active	Active	82.8	71.7	58.5	–
COc1ccc(OC)c2c1CC1c3cc(Cc4ccc(Br)cc4)sc3CCN1C2 (stereo unspecified)	169	187	242	1.9	101	105	101	–	–	–	–	–	–	–	–	–	–
COc1ccc(OC)c2c1CC1c3cc(Cc4nccs4)sc3CCN1C2 (stereo unspecified)	134	152	167	1.3 to 1.5	104	103	103	–	–	–	–	–	–	–	–	–	–
COc1ccc(OC)c2c1CC1c3cc(C(C)c4ccccc4)sc3CCN1C2 (stereo unspecified)	244	264	246	2.3 to 2.9	101	102	101	43.4	39.5	36	Dose-dependent effect	Active	Active	86.6	76.6	66	2.3
N#CC(C#N)=NNc1cccc(Cl)c1	–	–	–	–	–	–	–	–	–	–	–	–	–	–	42.9	–	–
COc1ccc(OC)c2c1CC1c3cc(Cc4ccc(NC(C)=O)cc4)sc3CCN1C2 (stereo unspecified)	121	130	142	1.3	96.2	97.2	94.9	–	–	–	–	–	–	–	–	–	–
C=CCOc1ccc(Cc2cc3c(s2)CCN2Cc4c(OC)ccc(OC)c4CC32)cc1 (stereo unspecified)	213	249	265	2.1 to 2.7	99.4	102	98.7	58.7	49.6	49	Dose-dependent effect	Active	Active	83.7	72.8	54	2.3
COc1ccc(OC)c2c1CC1c3cc(Cc4ccccn4)sc3CCN1C2 (stereo unspecified)	140	148	172	1.3 to 1.5	104	103	103	–	–	–	–	–	–	–	–	–	–
COc1ccc(OC)c2c1CC1c3cc(Cc4ccc(C)cc4)sc3CCN1C2 (stereo unspecified)	222	230	238	2.3 to 2.9	100	106	107	73.3	65	55.7	Dose-dependent effect	Active	Active	67.7	57.7	49	2.3
COc1ccc(OC)c2c1CC1c3cc(Cc4ccc(C(F)(F)F)cc4)sc3CCN1C2 (stereo unspecified)	156	189	229	1.9	102	101	100	–	–	–	–	–	–	–	–	–	–
COc1ccc(OC)c2c1CC1c3cc(Cc4ccc(N(C)C)cc4)sc3CCN1C2 (stereo unspecified)	200	201	230	2	110	108	107	–	–	–	–	–	–	–	–	–	–
COc1cccc(Cc2cc3c(s2)CCN2Cc4c(OC)ccc(OC)c4CC32)c1 (stereo unspecified)	245	242	243	2.1 to 2.7	100	94.9	100	73.2	58.8	38.1	Dose-dependent effect	Active	Active	76.3	72.8	59.2	2.3
COc1ccc(OC)c2c1CC1c3cc(Cc4ccc(N5CCOCC5)cc4)sc3CCN1C2 (stereo unspecified)	97.1	137	157	1.4	97.7	99.2	98.9	–	–	–	–	–	–	–	–	–	–
COc1ccc(OC)c2c1CC1c3cc(Cc4cc(OC)c(OC)c(OC)c4)sc3CCN1C2 (stereo unspecified)	174	188	184	1.9	95.3	104	104	–	–	–	–	–	–	–	–	–	–
COc1ccc(OC)c2c1CC1c3cc(Cc4ccc(N5CCN(C)CC5)cc4)sc3CCN1C2 (stereo unspecified)	168	169	181	1.7	106	104	107	–	–	–	–	–	–	–	–	–	–
COc1ccc(OC)c2c1CC1c3cc(Cc4ccncc4)sc3CCN1C2 (stereo unspecified)	111	130	153	1.3 to 1.5	105	110	104	–	–	–	–	–	–	–	–	–	–
COc1ccc(OC)c2c1CC1c3cc(Cc4ccc(S(C)(=O)=O)cc4)sc3CCN1C2 (stereo unspecified)	128	106	97.9	1.1	101	102	101	–	–	–	–	–	–	–	–	–	–
COc1ccc(OC)c2c1CC1c3cc(Cc4cccc(C)c4)sc3CCN1C2 (stereo unspecified)	237	266	251	–	99.6	99	101	82.7	65.6	47.5	Dose-dependent effect	Active	Active	84.5	77.8	67.6	–
COc1ccc(OC)c2c1CC1c3cc(Cc4ccc5c(c4)CCO5)sc3CCN1C2 (stereo unspecified)	200	212	212	2.1 to 2.7	101	103	103	–	–	–	–	–	–	–	–	–	–
COc1ccc(OC)c2c1CC1c3cc(Cc4ccc(F)cc4)sc3CCN1C2 (stereo unspecified)	216	238	235	2.3 to 2.9	98.8	98.2	100	96.7	83.4	60.6	Dose-dependent effect	Active	Active	82.8	76	62.9	2.3
